According to US20260014219A1, “COMPOSITION FOR INHIBITING REDUCTION OF TESTOSTERONE AND/OR DIHYDROTESTOSTERONE” (priority 2019, published 2026):

Tests used:
castrated rat = test: Test Example 1-1: male menopausal model rat (castrated, testosterone propionate-supplemented); format: in vivo
Experimental: As the human menopause model, rats were castrated (orchiectomy). An eight-week-old male rat was subjected to orchiectomy under isoflurane anesthesia, and the castrated rat was orally administered the hot water extract of Cordyceps militaris derived from Samia cynthia ricini (RK: 20 mg/0.2 mL distilled water/rat: average body weight at the start of administration: 317 g) together with testosterone propionate (TP: 1 mg/kg, every other day administration) continuously for 12 days. Animals were sacrificed the day after the final treatment, and then the serum, testes, prostate, and seminal vesicle glands were isolated. Some animals to which 0.2 mL distilled water was administered was used as control group.
After the blood collection, the concentrations of testosterone and dihydrotestosterone in the serum were evaluated by the following measurement kit.
The results of the blood testosterone values measured by an EIA kit (manufactured by Cayman) and the results of blood dihydrotestosterone values measured by an ELISA kit (manufactured by Abnova) are shown in FIGS. 1 and 2, respectively.
After the autopsy, changes in the weight of the prostate and the seminal vesicle were evaluated. The change in the weight of the prostate is shown in FIG. 5, and change in the weight of the seminal vesicle is shown in FIG. 6.

[1] = system: prostatic hypertrophy model rat; test: Test Example 1-2: prostatic hypertrophy model rat (long-term excessive TP); format: in vivo, Wistar rat; conditions: TP 3 mg/kg, 1 month
Experimental: In a rat model of menopause Test Example 1-1, since the increase in the prostatic weight by testosterone propionate (TP) was inhibited by the hot water extract of Cordyceps militaris derived from Samia cynthia ricini (RK), it was assumed that RK has inhibitory effects on prostatic hypertrophy. The effect of long-term administration of RK was, therefore, examined using a rat model of prostatic hypertrophy in which an excessive amount of TP is administered to mature rats for a long period of time.
An eight-week-old male Wistar rat was orally administered RK (10 mg/0.2 mL distilled water/rat or 20 mg/0.2 mL distilled water/rat: average body weight at the start of administration: 268 g) together with 3 mg/kg of TP continuously for 1 month. Animals were sacrificed the day after the final treatment, and then the serum, testes, prostate, and seminal vesicle glands were isolated. Some animals to which 0.2 mL distilled water was administered was used as control group.
After the blood collection, the serum levels of testosterone and dihydrotestosterone value were evaluated by the following measurement kit.
The results of the blood testosterone values measured by EIA kit (manufactured by Cayman) and the results of dihydrotestosterone values measured by Elisa kit (manufactured by Abnova) are shown in FIGS. 8 and 9, respectively.
After the necropsy, changes in prostate weight and body weight were evaluated.

testicular cells = test: Test Example 2: testosterone/dihydrotestosterone production in primary testicular cells; format: cell-based, rat; conditions: 0.5 mM, 1 h pretreatment, then LH or dibutyryl cAMP, 90 min
Experimental: Dispersed testicular cells were prepared from the testis in mature rats. The testicular cells isolated were cultured for 18 hours in DMEM/Ham's F-12 medium (manufactured by FUJIFILM Wako Pure Chemical Corporation) for culture of testicular stromal cells, Leydig cell. Cells were pretreated with the hot water extract of Cordyceps militaris derived from Samia cynthia ricini (diluted to 1:500), or cordycepin known as one of the physiological activity substances of a vegetative wasp (0.5 mM) for 1 hour and then stimulated with a luteinizing hormone (LH: 10 and 100 ng/mL) or dibutyryl cAMP (0.1 and 0.5 mM). Ninety minutes after the stimulation, the media was collected and the content of testosterone was quantified. In order to confirm the reproducibility, the results of the reexamination performed with the same test content are shown in FIG. 13. In the reexamnination, three independent experiments were performed, and in addition to testosterone, dihydrotestosterone was also quantified.

Structure (SMILES): CCC(=O)O[C@H]1CC[C@H]2[C@@H]3CCC4=CC(=O)CC[C@]4(C)[C@H]3CC[C@]12C [testosterone propionate]
- body weight (castrated rat; TP administered to castrated animals, FIG. 7): tended to increase
- weight of the prostate (castrated rat; TP group (1 mg/kg every other day) vs castrated, FIG. 5): increased
- weight of the seminal vesicle (castrated rat; TP group (1 mg/kg every other day) vs castrated, FIG. 6): increased
- serum levels of testosterone ([1]; FIG. 8): increase
- serum levels of dihydrotestosterone ([1]; FIG. 9): increase
- prostatic weight ([1]; FIG. 10): increased

Structure (SMILES): Nc1ncnc2c1ncn2[C@@H]1O[C@H](CO)C[C@H]1O [Cordycepin, cordycepin]
- stimulatory action on testosterone/dihydrotestosterone levels (testicular cells): No stimulatory action
